Assay results as given in ChEMBL document CHEMBL1136837, “Unified QSAR approach to antimicrobials. 4. Multi-target QSAR modeling and comparative multi-distance study of the giant components of antiviral drug-drug complex networks” (Bioorg Med Chem, 2009).
pIC50: −log10 of the molar value.

Legend:
[1] = test system: Human immunodeficiency virus 1; experiment: Antiviral activity against HIV1; assay type: functional, organism-based
Hepatitis C virus = experiment: Antiviral activity against Hepatitis C virus; assay type: functional, organism-based, Hepacivirus hominis; conditions: Hepatitis C virus

Row | SMILES | pIC50 [1] | pIC50 (Hepatitis C virus)
1 | O=c1nc(O)ccn1[C@@H]1S[C@H](CO)C=C1F | 4.00 | –
2 | Nc1nc2c(ncn2[C@@H]2S[C@H](CO)C=C2F)c(=O)[nH]1 | 4.09 | –
3 | O=c1cc(Cc2c(F)cccc2F)nc(NC2CCCC2)[nH]1 | 7.15 | –
4 | CC(=O)N[C@H](C(=O)N[C@H](C(=O)N1C[C@H](Oc2cccc(Br)c2)C[C@H]1C(=O)NC1(C(=O)O)CC1)C(C)C)C1CCCCC1 | – | 4.28
5 | CC(c1cc(=O)[nH]c(NC2CCCC2)n1)c1c(F)cccc1F (centres undefined) | 7.40 | –
6 | CCC[C@]1(CC(=O)O)OCCc2c1[nH]c1c(C)cc(F)c(C#N)c21 | – | 7.10
7 | Cc1c(C(C)c2c(F)cccc2F)nc(SC2CCCC2)[nH]c1=O (centres undefined) | 8.30 | –
8 | C=C(C)[C@@H]1CC[C@]2(C(=O)N[C@@H](CC(C)C)C(=O)O)CC[C@]3(C)[C@H](CC[C@@H]4[C@@]5(C)CC[C@H](O)C(C)(C)[C@@H]5CC[C@]43C)[C@@H]12 | 5.49 | –
9 | COc1ccc(C(OCCn2c([N+](=O)[O-])cnc2C)c2ccccc2)cc1 (centres undefined) | 4.07 | –
10 | Cc1ncc([N+](=O)[O-])n1CCOC(c1ccccc1)c1ccc(Cl)c(Cl)c1 (centres undefined) | 4.01 | –
11 | Fc1cccc(F)c1Cn1c(-c2c(F)cccc2F)nc2c(Cl)cccc21 | 6.40 | –
12 | NC(=O)c1cccc2c1nc(-c1c(F)cccc1F)n2Cc1c(F)cccc1F | 6.43 | –
13 | CC(c1cc(=O)[nH]c(SC2CCCC2)n1)c1c(F)cccc1F (centres undefined) | 7.52 | –
14 | Cc1c(Cc2c(F)cccc2F)nc(SC2CCCC2)[nH]c1=O | 7.10 | –
15 | CC(=O)N[C@H](C(=O)N[C@H](C(=O)N1C[C@H](OCc2cccc3ccccc23)C[C@H]1C(=O)N[C@@]1(C(=O)O)C[C@@H]1CCc1ccccc1)C(C)C)C1CCCCC1 | – | 4.05
16 | O=c1cc(Cc2c(F)cccc2F)nc(SC2CCCC2)[nH]1 | 7.10 | –
17 | O=C(OC(C(=O)O)C(OC(=O)c1cccs1)C(=O)O)c1cccs1 (centres undefined) | 5.00 | –
18 | COc1ccnc2[nH]cc(C(=O)C(=O)N3CCN(C(=O)c4ccccc4)C[C@H]3C)c12 | 9.07 | –
19 | Cc1cn([C@@H]2S[C@H](CO)C=C2F)c(=O)nc1O | 4.03 | –
20 | Nc1nc(=O)n([C@@H]2S[C@H](CO)C=C2F)cc1F | 4.94 | –
21 | O=c1[nH]cnc2c1ncn2[C@@H]1S[C@H](CO)C=C1F | 4.36 | –
22 | Cc1c(Cc2c(F)cccc2F)nc(NC2CCCC2)[nH]c1=O | 7.52 | –
23 | CC(=O)N[C@H](C(=O)N[C@H](C(=O)N1C[C@H](Oc2cccc(-c3cccc([N+](=O)[O-])c3)c2)C[C@H]1C(=O)NC1(C(=O)O)CC1)C(C)C)C1CCCCC1 | – | 5.40

Row | SMILES | pIC50 [1] | pIC50 (Hepatitis C virus)
24 | Cc1c(C(C)c2c(F)cccc2F)nc(NC2CCCC2)[nH]c1=O (centres undefined) | 7.46 | –
25 | CCCC1(CC(=O)O)OCCc2c1[nH]c1c(C)cc(F)c(C#N)c21 (centres undefined) | – | 6.92
26 | CCC[C@]1(CC(=O)O)OCCc2c1[nH]c1c(C)ccc(C#N)c21 | – | 6.48
27 | CC(=O)Nc1ccc(C(OCCn2c([N+](=O)[O-])cnc2C)c2ccccc2)cc1 (centres undefined) | 3.70 | –
28 | Cc1ncc([N+](=O)[O-])n1CCCOC(c1ccccc1)c1ccccc1 | 4.46 | –
29 | Cc1ncc([N+](=O)[O-])n1CCOC(c1ccccc1)c1cccc(-n2cccc2)c1 (centres undefined) | 4.85 | –
30 | Cc1ncc([N+](=O)[O-])n1CCOC(c1ccccc1)c1cc(Cl)cc(Cl)c1 (centres undefined) | 4.35 | –
31 | Cc1c(CO)c(=O)oc2c3c(ccc12)OC(C)(C)[C@H](OC(=O)C12CCC(C)(C(=O)O1)C2(C)C)[C@@H]3OC(=O)C12CCC(C)(C(=O)O1)C2(C)C (some centres undefined) | 4.60 | –
32 | CC(=O)N[C@H](C(=O)N[C@H](C(=O)N1C[C@H](OCc2cccc3ccccc23)C[C@H]1C(=O)N[C@@]1(C(=O)O)C[C@@H]1Cc1ccccc1)C(C)C)C1CCCCC1 | – | 4.09
33 | Cc1ncc([N+](=O)[O-])n1CCOC(c1ccccc1)c1ccc([N+](=O)[O-])cc1 (centres undefined) | 5.30 | –
34 | C=C(C)[C@@H]1CC[C@]2(C(=O)N[C@@H](CC(C)C)C(=O)OC)CC[C@]3(C)[C@H](CC[C@@H]4[C@@]5(C)CC[C@H](OC(C)=O)C(C)(C)[C@@H]5CC[C@]43C)[C@@H]12 | 4.40 | –
35 | CC(=O)Oc1ccc(/C=C/C(=O)O[C@H](C(=O)O)[C@H](OC(=O)/C=C/c2ccc(OC(C)=O)c(OC(C)=O)c2)C(=O)O)cc1OC(C)=O | 4.81 | –
36 | CC(=O)OCc1cc2c(C)cc(=O)oc2c2c1OC(C)(C)[C@H](OC(=O)[C@@]13CC[C@](C)(C(=O)O1)C3(C)C)[C@@H]2OC(=O)[C@@]12CC[C@](C)(C(=O)O1)C2(C)C | 4.85 | –
37 | Nc1nc(NC2CC2)c2ncn([C@H]3C=C[C@@H](CO)O3)c2n1 | 5.07 | –
38 | Cc1ncc([N+](=O)[O-])n1CCOC(c1ccccc1)c1ccccc1[N+](=O)[O-] (centres undefined) | 6.22 | –
39 | O=C(OC(C(=O)O)C(OC(=O)c1ccsc1)C(=O)O)c1ccsc1 (centres undefined) | 5.00 | –
40 | CC(=O)OCc1c(C)c2ccc3c(c2oc1=O)[C@@H](OC(=O)[C@@]12CC[C@](C)(C(=O)O1)C2(C)C)[C@@H](OC(=O)[C@@]12CC[C@](C)(C(=O)O1)C2(C)C)C(C)(C)O3 | 4.83 | –
41 | CC[C@@H]1C[C@]1(NC(=O)[C@@H]1C[C@@H](Oc2cccc(-c3ccccc3)c2)CN1C(=O)[C@@H](NC(=O)[C@@H](NC(C)=O)C1CCCCC1)C(C)C)C(=O)O | – | 6.92
42 | CC1(C)Oc2ccc3cc(CBr)c(=O)oc3c2[C@@H](OC(=O)[C@@]23CC[C@](C)(C(=O)O2)C3(C)C)[C@H]1OC(=O)[C@@]12CC[C@](C)(C(=O)O1)C2(C)C | 4.95 | –
43 | Cc1cc(=O)oc2c3c(c(CN)cc12)OC(C)(C)[C@H](OC(=O)[C@@]12CC[C@](C)(C(=O)O1)C2(C)C)[C@@H]3OC(=O)[C@@]12CC[C@](C)(C(=O)O1)C2(C)C | 4.82 | –
44 | CC1(C)Oc2ccc3cc(CN)c(=O)oc3c2[C@@H](OC(=O)[C@@]23CC[C@](C)(C(=O)O2)C3(C)C)[C@H]1OC(=O)[C@@]12CC[C@](C)(C(=O)O1)C2(C)C | 4.81 | –
45 | Cc1cc(=O)oc2c3c(c(CO)cc12)OC(C)(C)[C@H](OC(=O)[C@@]12CC[C@](C)(C(=O)O1)C2(C)C)[C@@H]3OC(=O)[C@@]12CC[C@](C)(C(=O)O1)C2(C)C | 4.82 | –
46 | CC(=O)OCc1cc2ccc3c(c2oc1=O)[C@@H](OC(=O)[C@@]12CC[C@](C)(C(=O)O1)C2(C)C)[C@@H](OC(=O)[C@@]12CC[C@](C)(C(=O)O1)C2(C)C)C(C)(C)O3 | 4.94 | –

Row | SMILES | pIC50 [1] | pIC50 (Hepatitis C virus)
47 | Cc1c(CBr)c(=O)oc2c3c(ccc12)OC(C)(C)[C@H](OC(=O)[C@@]12CC[C@](C)(C(=O)O1)C2(C)C)[C@@H]3OC(=O)[C@@]12CC[C@](C)(C(=O)O1)C2(C)C | 4.68 | –
48 | CC1(C)Oc2ccc3cc(CO)c(=O)oc3c2[C@@H](OC(=O)[C@@]23CC[C@](C)(C(=O)O2)C3(C)C)[C@H]1OC(=O)[C@@]12CC[C@](C)(C(=O)O1)C2(C)C | 4.64 | –
49 | Cc1cc(=O)oc2c3c(c(CBr)cc12)OC(C)(C)[C@H](OC(=O)[C@@]12CC[C@](C)(C(=O)O1)C2(C)C)[C@@H]3OC(=O)[C@@]12CC[C@](C)(C(=O)O1)C2(C)C | 4.86 | –
50 | CCN(CC)Cc1cc2ccc3c(c2oc1=O)[C@@H](OC(=O)[C@@]12CC[C@](C)(C(=O)O1)C2(C)C)[C@@H](OC(=O)[C@@]12CC[C@](C)(C(=O)O1)C2(C)C)C(C)(C)O3 | 4.85 | –
51 | O=C(O)C(=C\c1ccc(O)c(O)c1)/C(=C\c1ccc(O)c(O)c1)C(=O)O | 5.66 | –
52 | COc1ccc(F)cc1-c1nc2c(N)cccc2n1Cc1c(F)cccc1F | 5.57 | –
53 | Fc1cccc(F)c1Cn1c(-c2ccccc2)nc2ccccc21 | 7.22 | –
54 | Fc1cccc(F)c1Cn1c(-c2c(F)cccc2F)nc2ccccc21 | 5.77 | –
55 | O=Cc1cccc2c1nc(-c1c(F)cccc1F)n2Cc1c(F)cccc1F | 7.00 | –
56 | CC(=O)N[C@H](C(=O)N[C@H](C(=O)N1C[C@H](OCc2cccc3ccccc23)C[C@H]1C(=O)N[C@@]1(C(=O)O)C[C@@H]1C(C)C)C(C)C)C1CCCCC1 | – | 3.19
57 | CC(=O)N[C@H](C(=O)N[C@H](C(=O)N1C[C@H](OCc2cccc3ccccc23)C[C@H]1C(=O)N[C@@]1(C(=O)O)C[C@@H]1C)C(C)C)C1CCCCC1 | – | 3.74
58 | O=C(/C=C/c1ccc(O)c(O)c1)NCC(OC(=O)/C=C/c1ccc(O)c(O)c1)C(=O)O (racemic) | 6.72 | –
59 | O=C(NNC(=O)c1ccccc1S)c1ccccc1S [BIS(THIOSALICYL)HYDRAZIDE] | 5.37 | –
60 | C#C[C@@]1(CO)C=C[C@H](n2cc(C)c(=O)[nH]c2=O)O1 [CENSAVUDINE] | 6.60 | –
61 | CC1(C)Oc2ccc3ccc(=O)oc3c2[C@@H](OC(=O)[C@@]23CC[C@](C)(C(=O)O2)C3(C)C)[C@H]1OC(=O)[C@@]12CC[C@](C)(C(=O)O1)C2(C)C [DCK] | 4.79 | –
62 | CC(C)Nc1cccnc1N1CCN(C(=O)c2cc3cc(NS(C)(=O)=O)ccc3[nH]2)CC1 [DELAVIRDINE] | 5.27 | –
63 | NC(=O)c1[nH]c2ccc(Cl)cc2c1S(=O)(=O)c1ccccc1 [L-737126] | 5.70 | –
64 | CCCCOC(=O)c1cc2c([nH]c3ccccc32)c(-c2ccc3c(n2)C(=O)C(NC(=O)CCC)=CC3=O)n1 [LAV12] | 5.24 | –
65 | Cc1cccc(C)c1OCC(=O)N[C@@H](Cc1ccccc1)[C@@H](O)C[C@H](Cc1ccccc1)NC(=O)[C@H](C(C)C)N1CCCNC1=O [LOPINAVIR] | 7.47 | –
66 | Cc1ccnc2c1NC(=O)c1cccnc1N2C1CC1 [NEVIRAPINE] | 7.22 | –
67 | Cc1cc(/C=C/C#N)cc(C)c1Nc1ccnc(Nc2ccc(C#N)cc2)n1 [RILPIVIRINE] | 9.40 | –
68 | COC(=O)C(C)NP(=O)(OC[C@@H]1C=C[C@H](n2cc(C)c(=O)[nH]c2=O)O1)Oc1ccc(Br)cc1 (some centres undefined) [STAMPIDINE] | 8.52 | –
69 | COC[C@@H](c1ccc(C(F)(F)F)cc1)N1CCN(C2(C)CCN(C(=O)c3c(C)ncnc3C)CC2)C[C@@H]1C [VICRIVIROC] | 9.28 | –
